Consider 31 molecules from patent US20240209005A1, “BICYCLIC HETEROARYL BORONATE DERIVATIVES AS ECTONUCLEOTIDE PYROPHOSPHATASE PHOSPHODIESTERASE 1 INHIBITORS” (RIBOSCIENCE LLC, priority 2021, published 2024).

The structures appear in SMILES notation. Counter-ions that a name gives are not always drawn.

The experiment addresses T1, ENPP1 (Homo sapiens, UniProt P22413).
T1 sequence (P22413 1-925): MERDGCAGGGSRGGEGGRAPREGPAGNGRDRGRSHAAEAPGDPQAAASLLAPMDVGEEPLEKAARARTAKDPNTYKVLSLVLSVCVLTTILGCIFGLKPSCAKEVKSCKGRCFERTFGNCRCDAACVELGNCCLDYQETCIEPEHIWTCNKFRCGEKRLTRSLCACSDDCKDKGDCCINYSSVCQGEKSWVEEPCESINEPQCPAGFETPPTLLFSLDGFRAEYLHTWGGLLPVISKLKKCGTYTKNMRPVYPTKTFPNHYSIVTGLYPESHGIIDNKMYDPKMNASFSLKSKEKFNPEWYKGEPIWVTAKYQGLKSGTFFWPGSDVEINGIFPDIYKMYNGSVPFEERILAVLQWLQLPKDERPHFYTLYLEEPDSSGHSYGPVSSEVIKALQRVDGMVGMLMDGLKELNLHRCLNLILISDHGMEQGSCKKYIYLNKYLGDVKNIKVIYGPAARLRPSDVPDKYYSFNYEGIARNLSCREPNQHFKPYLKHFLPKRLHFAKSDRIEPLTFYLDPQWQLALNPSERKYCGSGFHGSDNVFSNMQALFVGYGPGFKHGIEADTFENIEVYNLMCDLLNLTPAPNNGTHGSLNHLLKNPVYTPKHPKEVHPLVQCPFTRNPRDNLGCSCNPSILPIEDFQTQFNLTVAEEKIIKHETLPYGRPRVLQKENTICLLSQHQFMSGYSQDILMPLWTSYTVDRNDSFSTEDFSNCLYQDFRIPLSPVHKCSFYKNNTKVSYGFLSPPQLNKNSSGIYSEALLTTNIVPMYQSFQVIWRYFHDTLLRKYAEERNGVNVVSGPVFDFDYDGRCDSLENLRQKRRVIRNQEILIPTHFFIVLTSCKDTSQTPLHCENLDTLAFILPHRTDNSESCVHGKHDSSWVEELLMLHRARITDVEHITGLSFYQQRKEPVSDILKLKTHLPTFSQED
The experiment can be described thus: Measurement of pNP-TMP hydrolysis by ENPP1. Conditions: purified ENPP1, pNP-TMP substrate 500 μM, KM 232 μM; Ki calculated from IC50 by Cheng-Prusoff. In kind it is biochemical. How it is done:
p-Nitrophenyl thymidine 5′-monophosphate (pNP-TMP) is a synthesized substrate for ENPP1. The ENPP1 enzyme activity assay with pNP-TMP substrate was conducted as follows:
Incubation of ENPP1 with compounds was set at 25° C. for 10 min. […] For each compound dilution, wells with assay buffer (50 mM Tris-HCl, pH8.8, 250 mM NaCl, 0.1 mg/ml BSA, 1% DMSO) only but no ENPP1 were included as controls for subtraction of test compound derived absorbance at 405 nm.
Absorbance at 405 nm was recorded immediately in kinetic mode by PerkinElmer 2300 Enspire multimode plate reader.
For each inhibitor, the specific ENPP1 activity was calculated using the following equation: ENPP1 activity (pmol/min/g)=Adjusted Vmax (OD405 nm/min) X conversion factor (pmol/OD405 nm)/amount of enzyme (g)
Adjusted Vmax=V0×(Km+(S))/(S).
V0=(OD405 nm with ENPP1−OD405 nm ENPP1 blank)/minutes. OD405 nm was plotted, with blank subtracted, against time (minutes), the initial linear rate is V0. […]
The slope is the conversion factor. The percent ENPP1 activity for each sample was calculated using the following equation:
% enzyme activity=sample enzyme activity/MAX Activity×100%.
To determine the IC50 for each compound, compound concentration values and percent enzyme activity values were inserted into GraphPad Prism (GraphPad Prism version 7.0 for Windows, GraphPad Software, La Jolla California USA, www.graphpad.com), and Prism's Transform analysis was used to convert the x-axis values (compound concentration) to logarithms. A sigmoidal variable slope nonlinear regression analysis was performed using the following equation: Y=Bottom+(Top−Bottom)/(1+10^((LogIC50−X)*HillSlope)).
The term Ki denotes the dissociation constant of the complex between target and ligand, obtained from inhibition or displacement. Regarding `CCNC(=O)c1c[nH]c2c(NCc3ccc(B(O)O)cc3)ncnc12` [compound 10, 4-([[7-(ethylcarbamoyl)-5H-pyrrolo[3,2-d]pyrimidin-4-yl]-amino]methyl)phenylboronic acid; formic acid], the Ki is less than 100 nM.

Turning to `N#Cc1csc2c(NCc3ccc(B(O)O)cc3)ncnc12` [compound 40, 4-[([7-cyanothieno[3,2-d]pyrimidin-4-yl]amino)-methyl]phenylboronic acid], the Ki was less than 100 nM.

As for `OB(O)c1ccc(CNc2nc(-c3ccccc3)nc3cn[nH]c23)cc1` [compound 28, 4-[([5-phenyl-1H-pyrazolo[4,3-d]pyrimidin-7-yl]amino)-methyl]phenylboronic acid], the Ki is less than 1000 nM.

Consider `Cn1ncc2nc(-c3ccncc3)nc(NCc3ccc(B(O)O)cc3)c21` [compound 32, 4-([[1-methyl-5-(pyridin-4-yl)pyrazolo[4,3-d]pyrimidin-7-yl]amino]methyl)phenylboronic acid], for which the inhibition constant (Ki) is less than 100 nM.

As to `CNC(=O)c1n[nH]c2c(NCc3ccc(B(O)O)cc3)ncnc12` [Cpd. 22], the Ki is greater than 10000 nM.

Consider `CC(=O)Nc1c[nH]c2c(NCc3ccc(B(O)O)cc3)ncnc12` [compound 7, 4-[([7-acetamido-5H-pyrrolo[3,2-d]pyrimidin-4-yl]amino)-methyl]phenylboronic acid], for which the Ki was less than 1000 nM.

In the case of `O=C(NCCO)c1c[nH]c2c(NCc3ccc(B(O)O)cc3)ncnc12` [compound 13, 4-[([7-[(2-hydroxyethyl)carbamoyl]-5H-pyrrolo[3,2-d]-pyrimidin-4-yl]amino)methyl]phenylboronic acid], the inhibition constant Ki was less than 10000 nM.

For the molecule `CC(C)c1nc(NCc2ccc(B(O)O)cc2)c2[nH]ncc2n1` [compound 27, 4-[([5-isopropyl-1H-pyrazolo[4,3-d]pyrimidin-7-yl]-amino)methyl]phenylboronic acid formic acid salt], the Ki was less than 1000 nM.

For `O=CNc1csc2c(NCc3ccc(B(O)O)cc3)ncnc12` [compound 25, 4-[([7-formamidothieno[3,2-d]pyrimidin-4-yl]amino)-methyl]phenylboronic acid], the inhibitory constant (Ki) is less than 100 nM.

Regarding `CC(C)c1nc(NCc2ccc(B(O)O)cc2)c2c(cnn2C)n1` [compound 6, 4-[([5-isopropyl-1-methylpyrazolo[4,3-d]pyrimidin-7-yl]-amino)methyl]phenylboronic acid], the Ki is less than 100 nM.

Take `COC(=O)c1csc2c(NCc3ccc(B(O)O)cc3)ncnc12` [compound 38, 4-([[7-(methoxycarbonyl)thieno[3,2-d]pyrimidin-4-yl]-amino]methyl)-phenylboronic acid]: the Ki was less than 100 nM.

Take `OB(O)c1ccc(CNc2ncnc3cc[nH]c23)cc1` [Cpd. 4, 4-([5H-pyrrolo[3,2-d]pyrimidin-4-ylamino]methyl)phenyl-boronic acid]: the Ki was less than 10000 nM.

For the molecule `OB(O)c1ccc(CNc2ncnc3ccsc23)cc1` [compound 26, 4-([thieno[3,2-d]pyrimidin-4-ylamino]methyl)phenyl-boronic acid.], the Ki was less than 100 nM.

As to `NC(=O)c1c[nH]c2c(NCc3ccc(B(O)O)cc3)ncnc12` [compound 16, 4-[([7-carbamoyl-5H-pyrrolo[3,2-d]pyrimidin-4-yl]amino)-methyl]phenylboronic acid], the Ki is less than 1000 nM.

As to `CNC(=O)c1csc2c(NCc3ccc(B(O)O)cc3)ncnc12` [compound 12, 4-([[7-(methylcarbamoyl)thieno[3,2-d]pyrimidin-4-yl]-amino]methyl)phenylboronic acid], the inhibitory constant (Ki) is less than 100 nM.

As for `Cn1ncc2ncnc(NCc3ccc(B(O)O)cc3)c21` [compound 18, 4-[([1-methylpyrazolo[4,3-d]pyrimidin-7-yl]amino)methyl]-phenylboronic acid], the Ki is less than 100 nM.

Turning to `CCC(=O)Nc1csc2c(NCc3ccc(B(O)O)cc3)ncnc12` [compound 3, 4-[([7-propanamidothieno[3,2-d]pyrimidin-4-yl]amino)-methyl]phenylboronic acid], the Ki is less than 1000 nM.

In the case of `CC(C)NC(=O)c1c[nH]c2c(NCc3ccc(B(O)O)cc3)ncnc12` [compound 14, 4-([[7-(isopropylcarbamoyl)-5H-pyrrolo[3,2-d]pyrimidin-4-yl]amino]methyl)phenylboronic acid], the Ki is less than 1000 nM.

For the molecule `Cn1ncc2nc(/C=C/c3cccnc3)nc(NCc3ccc(B(O)O)cc3)c21` [compound 35, 4-[([1-methyl-5-[(E)-2-(pyridin-3-yl)ethenyl]pyrazolo[4,3-d]pyrimidin-7-yl]amino)methyl]phenylboronic acid], the Ki is less than 100 nM.

Consider `CN(C)C(=O)c1c[nH]c2c(NCc3ccc(B(O)O)cc3)ncnc12` [compound 11, 4-([[7-(dimethylcarbamoyl)-5H-pyrrolo[3,2-d]pyrimidin-4-yl]-amino]methyl)phenylboronic acid], for which the Ki was less than 1000 nM.

For `N#Cc1c[nH]c2c(NCc3ccc(B(O)O)cc3)ncnc12` [compound 15, 4-[([7-cyano-5H-pyrrolo[3,2-d]pyrimidin-4-yl]amino)methyl]phenylboronic acid], the Ki is less than 100 nM.

For `Cn1cnc2ncnc(NCc3ccc(B(O)O)cc3)c21` [compound 19, 4-[[(7-methylpurin-6-yl)amino]methyl]phenylboronic acid], the Ki is less than 100 nM.

On to `NC(=O)c1csc2c(NCc3ccc(B(O)O)cc3)ncnc12` [compound 39, 4-[([7-carbamoylthieno[3,2-d]pyrimidin-4-yl]amino)-methyl]phenylboronic acid], for which the inhibition constant (Ki) is less than 100 nM.

As to `Cn1ccc2ncnc(NCc3ccc(B(O)O)cc3)c21` [compound 1, 4-[([5-methylpyrrolo[3,2-d]pyrimidin-4-yl]amino)-methyl]phenylboronic acid; formic acid], the Ki is less than 100 nM.

Take `Cn1ncc2nc(-c3cccnc3)nc(NCc3ccc(B(O)O)cc3)c21` [compound 31, 4-([[1-methyl-5-(pyridin-3-yl)pyrazolo[4,3-d]pyrimidin-7-yl]amino]methyl)-phenylboronic acid]: the Ki was less than 1000 nM.

For the molecule `Cn1ncc2nc(-c3ccccc3)nc(NCc3ccc(B(O)O)cc3)c21` [compound 29, 4-[([1-methyl-5-phenylpyrazolo[4,3-d]pyrimidin-7-yl]-amino)-methyl]phenylboronic acid], the Ki was less than 1000 nM.

In the case of `O=CNc1csc2c(C#Cc3ccc(B(O)O)cc3)ncnc12` [compound 36, 4-(2-[7-formamidothieno[3,2-d]pyrimidin-4-yl]ethynyl)-phenylboronic acid], the Ki is less than 1000 nM.

On to `CC(C)C(=O)Nc1csc2c(NCc3ccc(B(O)O)cc3)ncnc12` [compound 23, 4-([[7-(2-methylpropanamido)thieno[3,2-d]pyrimidin-4-yl]-amino]methyl)phenylboronic acid], for which the Ki was greater than 10000 nM.

For `Cn1ncc2nc(-c3cnccn3)nc(NCc3ccc(B(O)O)cc3)c21` [compound 33, 4-([[1-methyl-5-(pyrazin-2-yl)pyrazolo[4,3-d]pyrimidin-7-yl]amino]methyl)-phenylboronic acid], the Ki was less than 100 nM.

In the case of `CNC(=O)c1c[nH]c2c(NCc3ccc(B(O)O)cc3)ncnc12` [compound 17, 4-([[7-(methylcarbamoyl)-5H-pyrrolo[3,2-d]pyrimidin-4-yl]amino]methyl)phenylboronic acid; formic acid], the Ki was less than 100 nM.

Consider `Cn1ncc2nc(-c3ccccn3)nc(NCc3ccc(B(O)O)cc3)c21` [compound 30, 4-([[1-methyl-5-(pyridin-2-yl)pyrazolo[4,3-d]pyrimidin-7-yl]amino]-methyl)phenylboronic acid], for which the Ki is less than 100 nM.
